These results are taken from ChEMBL document CHEMBL1201862, “PubChem BioAssay data set” (2004).

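Briefly, cells in 96-well plates were exposed to five compound concentrations for 48 h, and endpoints were estimated by linear interpolation. The concentration for 50% growth inhibition is given as GI50.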 Active and inactive are the calls of the source. Rule as the data show it: active = GI50 up to about 1.1 µM and inactive = higher.

Among the test systems are 786-0; A498; CAKI-1; CCRF-CEM; COLO 205; EKVX; Hs-578T; M14; MCF7; MOLT-4; Malme-3M; NCI-H226; NCI-H522; NCI/ADR-RES; OVCAR-8; RXF 393; SK-MEL-28; SK-MEL-2; U-251.
Common to all, as to experiment: NCI anticancer screen, dose series, 48 h

With `CCC1=NC(N/N=C/c2ccccc2O)=N/C1=C\c1ccccc1O`, the GI50 with 786-0 was 6.76 µM (inactive); with A498, 26.7 µM (inactive); with CAKI-1, 19.6 µM (inactive); in the assay on CCRF-CEM, 3.94 µM (inactive); with COLO 205, 13.3 µM (inactive); in the assay with EKVX, 10.2 µM (inactive). For the same compound, the GI50 in the assay on Hs-578T is 23.9 µM (inactive); in the assay with M14 it was 10.1 µM (inactive); in the assay with MCF7, 5.52 µM (inactive); in the assay with MOLT-4 it was 6.56 µM (inactive); with Malme-3M it was 12.4 µM (inactive); in the assay with NCI-H226 it was 22.1 µM (inactive). Also, the GI50 in the assay with NCI-H522 is 6.43 µM (inactive); in the assay on NCI/ADR-RES, 2.68 µM (inactive); in the assay with OVCAR-8, 8.57 µM (inactive); in the assay on RXF 393, 18.3 µM (inactive); in the assay on SK-MEL-28, 23.7 µM (inactive); in the assay on SK-MEL-2, 12.6 µM (inactive). In addition, the GI50 with U-251 is 19.3 µM (inactive).

For `CC(=O)c1c(=O)n(-c2ccc(C)cc2)c(O)c2c(N)n[nH]c12`, the GI50 in the assay with 786-0, in the assay on A498, in the assay with CAKI-1, in the assay with CCRF-CEM, with COLO 205 and with EKVX was > 100 µM (inactive) each time. The GI50 in the assay on Hs-578T, in the assay with M14, in the assay on MCF7, in the assay on MOLT-4, in the assay with Malme-3M and with NCI-H226 was > 100 µM (inactive) in each case. Moreover, the GI50 in the assay with NCI-H522, in the assay on NCI/ADR-RES, in the assay on OVCAR-8, in the assay with RXF 393, in the assay on SK-MEL-28 and with SK-MEL-2 was > 100 µM (inactive) throughout. For the same compound, the GI50 in the assay on U-251 was > 100 µM (inactive).

On to `C\C(=N/N=C1/C(=C\N(C)C)C(=O)NC(=O)N1C)c1ccc(Cl)cc1`, for which the GI50 with 786-0 was > 100 µM (inactive); in the assay on A498 it was > 100 µM (inactive); in the assay on CAKI-1 it was 76.4 µM (inactive); with CCRF-CEM, 15.8 µM (inactive); in the assay with COLO 205, > 100 µM (inactive); with EKVX, > 100 µM (inactive). Further, the GI50 with Hs-578T is > 100 µM (inactive); in the assay on M14, 43.2 µM (inactive); in the assay with MCF7, > 100 µM (inactive); with MOLT-4, > 100 µM (inactive); in the assay on Malme-3M, > 100 µM (inactive); in the assay with NCI-H226, 68.5 µM (inactive). For the same compound, the GI50 with NCI-H522 is 62.2 µM (inactive); in the assay with NCI/ADR-RES, > 100 µM (inactive); in the assay on OVCAR-8, > 100 µM (inactive); in the assay with RXF 393 it was > 100 µM (inactive); in the assay on SK-MEL-28 it was > 100 µM (inactive); in the assay on SK-MEL-2, 57.9 µM (inactive). The GI50 in the assay with U-251 was > 100 µM (inactive).

Regarding `COc1ccc(-c2cc(-c3ccccc3)nc(N)c2-c2ccc3ccccc3c2)cc1`, the GI50 was 1.73 µM (inactive) in the assay on 786-0; 2.04 µM (inactive) in the assay on A498; 3.46 µM (inactive) in the assay on CAKI-1; 3.13 µM (inactive) with CCRF-CEM; 1.68 µM (inactive) in the assay with COLO 205; 1.83 µM (inactive) in the assay with EKVX. For the same compound, the GI50 in the assay on Hs-578T was 1.65 µM (inactive); with M14, 2.53 µM (inactive); in the assay on MCF7, 1.83 µM (inactive); in the assay with MOLT-4, 2.37 µM (inactive); in the assay with Malme-3M, 1.25 µM (inactive); with NCI-H226, 1.5 µM (inactive). In addition, the GI50 in the assay with NCI-H522 was < 0.01 µM (active); with NCI/ADR-RES, 1.98 µM (inactive); with OVCAR-8 it was 1.66 µM (inactive); with RXF 393, 1.82 µM (inactive); in the assay with SK-MEL-28 it was 1.95 µM (inactive); with SK-MEL-2 it was 1.82 µM (inactive). Also, in the assay on U-251, the GI50 is 1.95 µM (inactive).
